ChEMBL document CHEMBL5346952, “Dimer Peptide Ligands of Vascular Endothelial Growth Factor: Optimizing Linker Length for High Affinity and Antiangiogenic Activity” (J Med Chem, 2023)
pKd: −log10 of the molar value. Starred links: 1 amine or outer side, 2 acyl side, 3 side chain; linkers in the order of their positions; H or OH if unused. Positions of bridges follow the written chain, without caps; N, C: chain ends. Residues, ends and D or L forms follow the SMILES beside them. Chains are numbered I, II in the order given. *: point of attachment. X1 = O=C(CCOCCOCCOCCOCCOCCOCCOCCOCCOCCOCCOCCOCCOCCOCCOCCOCCOCCOCCOCCOCCOCCOCCOCCOCCOCCC(=O)[*:2])[*:1]; X2 = O=C(O)CCOCCOCCOCCOCCOCCOCCOCCOCCOCCOCCOCCOCCOCCOCCOCCOCCOCCOCCOCCOCCOCCOCCOCCOCCOCCC(=O)*; CO(CH2CH2O)5CH2CH2CO = O=C(CCOCCOCCOCCOCCOCCC(=O)[*:2])[*:1]

What was measured:
[1] = target: T1, Vascular endothelial growth factor A, long form (Homo sapiens) (UniProt P15692); experiment: Binding affinity to human VEGF (13 to 107 residues) expressed in Escherichia coli Rosetta (DE3) cells assessed as change in entropy at 37 degreeC by isothermal titration calorimetry analysis
T1 sequence (whole entry): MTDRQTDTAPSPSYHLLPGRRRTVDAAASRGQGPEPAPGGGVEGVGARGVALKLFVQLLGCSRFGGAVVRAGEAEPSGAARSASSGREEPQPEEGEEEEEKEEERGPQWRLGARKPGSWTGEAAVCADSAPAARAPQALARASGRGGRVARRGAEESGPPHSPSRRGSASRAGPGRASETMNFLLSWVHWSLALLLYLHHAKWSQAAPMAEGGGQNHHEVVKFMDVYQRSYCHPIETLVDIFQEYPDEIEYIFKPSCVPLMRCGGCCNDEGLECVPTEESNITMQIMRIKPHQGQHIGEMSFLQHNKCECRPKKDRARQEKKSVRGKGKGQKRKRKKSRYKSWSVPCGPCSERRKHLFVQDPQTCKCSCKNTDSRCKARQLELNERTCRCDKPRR

[2] = test system: HUVEC; experiment: Antiangiogenic activity in human HUVEC cells assessed as inhibition of VEGFA-induced cell migration incubated for 12 hrs by wound healing assay; format: functional, cell-based
[3] = target: T1, Vascular endothelial growth factor A, long form (Homo sapiens); experiment: Binding affinity to human VEGF (13 to 107 residues) expressed in Escherichia coli Rosetta (DE3) cells assessed as change in entropy at 20 degreeC by isothermal titration calorimetry analysis
[4] = target: T2, Vascular endothelial growth factor A, long form (Homo sapiens, UniProt P15692); experiment: Binding affinity to human VEGF (13 to 107 residues) expressed in Escherichia coli Rosetta (DE3) cells assessed as dissociation constant at 37 degreeC by isothermal titration calorimetry analysis
T2 sequence (P15692 whole entry): T1 sequence (whole entry)

[5] = target: T2, Vascular endothelial growth factor A, long form; experiment: Binding affinity to human VEGF (13 to 107 residues) expressed in Escherichia coli Rosetta (DE3) cells assessed as dissociation constant at 20 degreeC by isothermal titration calorimetry analysis
[6] = target: T1, Vascular endothelial growth factor A, long form (Homo sapiens); experiment: Binding affinity to human VEGF (13 to 107 residues) expressed in Escherichia coli Rosetta (DE3) cells assessed as change in enthalpy at 20 degreeC by isothermal titration calorimetry analysis
[7] = target: T1, Vascular endothelial growth factor A, long form (Homo sapiens); experiment: Binding affinity to human VEGF (13 to 107 residues) expressed in Escherichia coli Rosetta (DE3) cells assessed as change in enthalpy at 37 degreeC by isothermal titration calorimetry analysis
[8] = target: T1, Vascular endothelial growth factor A, long form (Homo sapiens); experiment: Binding affinity to human VEGF (13 to 107 residues) expressed in Escherichia coli Rosetta (DE3) cells assessed as Gibbs free energy change at 20 degreeC by isothermal titration calorimetry analysis
[9] = test system: HUVEC; experiment: Antiangiogenic activity in human HUVEC cells assessed as inhibition of VEGFA-induced capillary tube formation incubated for 6 hrs by matrigel based microscopic analysis; format: functional, cell-based
[10] = target: T1, Vascular endothelial growth factor A, long form (Homo sapiens); experiment: Binding affinity to human VEGF (13 to 107 residues) expressed in Escherichia coli Rosetta (DE3) cells assessed as Gibbs free energy change at 37 degreeC by isothermal titration calorimetry analysis
[11] = target: T1, Vascular endothelial growth factor A, long form (Homo sapiens); experiment: Binding affinity to human VEGF (13 to 107 residues) expressed in Escherichia coli Rosetta (DE3) cells assessed as change in heat capacity at 20 degreeC by isothermal titration calorimetry analysis
[12] = target: T1, Vascular endothelial growth factor A, long form (Homo sapiens); experiment: Binding affinity to human VEGF (13 to 107 residues) expressed in Escherichia coli Rosetta (DE3) cells assessed as change in entropy at 20 degreeC by direct titration based isothermal titration calorimetry analysis
[13] = target: T1, Vascular endothelial growth factor A, long form (Homo sapiens); experiment: Binding affinity to human VEGF (13 to 107 residues) expressed in Escherichia coli Rosetta (DE3) cells assessed as change in enthalpy at 37 degreeC by reverse titration based isothermal titration calorimetry analysis
[14] = target: T2, Vascular endothelial growth factor A, long form; experiment: Binding affinity to human VEGF (13 to 107 residues) expressed in Escherichia coli Rosetta (DE3) cells assessed as dissociation constant at 37 degreeC by reverse titration based isothermal titration calorimetry analysis
[15] = target: T2, Vascular endothelial growth factor A, long form; experiment: Binding affinity to human VEGF (13 to 107 residues) expressed in Escherichia coli Rosetta (DE3) cells assessed as dissociation constant at 37 degreeC by direct titration based isothermal titration calorimetry analysis
[16] = target: T1, Vascular endothelial growth factor A, long form (Homo sapiens); experiment: Binding affinity to human VEGF (13 to 107 residues) expressed in Escherichia coli Rosetta (DE3) cells assessed as change in enthalpy at 20 degreeC by reverse titration based isothermal titration calorimetry analysis
[17] = target: T1, Vascular endothelial growth factor A, long form (Homo sapiens); experiment: Binding affinity to human VEGF (13 to 107 residues) expressed in Escherichia coli Rosetta (DE3) cells assessed as change in entropy at 37 degreeC by reverse titration based isothermal titration calorimetry analysis
[18] = target: T2, Vascular endothelial growth factor A, long form; experiment: Binding affinity to human VEGF (13 to 107 residues) expressed in Escherichia coli Rosetta (DE3) cells assessed as dissociation constant at 20 degreeC by reverse titration based isothermal titration calorimetry analysis
[19] = target: T1, Vascular endothelial growth factor A, long form (Homo sapiens); experiment: Binding affinity to human VEGF (13 to 107 residues) expressed in Escherichia coli Rosetta (DE3) cells assessed as change in enthalpy at 37 degreeC by direct titration based isothermal titration calorimetry analysis
[20] = target: T1, Vascular endothelial growth factor A, long form (Homo sapiens); experiment: Binding affinity to human VEGF (13 to 107 residues) expressed in Escherichia coli Rosetta (DE3) cells assessed as change in enthalpy at 20 degreeC by direct titration based isothermal titration calorimetry analysis
[21] = target: T2, Vascular endothelial growth factor A, long form; experiment: Binding affinity to human VEGF (13 to 107 residues) expressed in Escherichia coli Rosetta (DE3) cells assessed as dissociation constant at 20 degreeC by direct titration based isothermal titration calorimetry analysis
[22] = target: T1, Vascular endothelial growth factor A, long form (Homo sapiens); experiment: Binding affinity to human VEGF (13 to 107 residues) expressed in Escherichia coli Rosetta (DE3) cells assessed as change in entropy at 20 degreeC by reverse titration based isothermal titration calorimetry analysis
[23] = target: T1, Vascular endothelial growth factor A, long form (Homo sapiens); experiment: Binding affinity to human VEGF (13 to 107 residues) expressed in Escherichia coli Rosetta (DE3) cells assessed as change in entropy at 37 degreeC by direct titration based isothermal titration calorimetry analysis

CC[C@H](C)[C@@H]1NC(=O)[C@H](CC(=O)O)NC(=O)[C@@H](NC(C)=O)CSSC[C@@H]2NC(=O)[C@H](CCCCNC(=O)C[C@@H](C(=O)N[C@@H](CC(C)C)C(N)=O)NC(=O)[C@H](CCC(=O)O)NC(=O)[C@H](Cc3ccccc3)NC2=O)NC(=O)[C@H](Cc2c[nH]c3ccccc23)NC(=O)[C@H](CCC(=O)O)NC(=O)[C@H](Cc2c[nH]c3ccccc23)NC(=O)[C@H](CCCCNC(=O)CCOCCOCCOCCOCCOCCOCCOCCOCCOCCOCCOCCOCCOCCOCCOCCOCCOCCOCCOCCOCCOCCOCCOCCOCCOCCC(=O)O)NC(=O)[C@H](C(C)C)NC(=O)[C@H](Cc2cnc[nH]2)NC1=O (Ac-CDIHVK(X2)WEWKCFEDL-NH2; disulfide 1-11; lactam 10-14)
-TdeltaS [1]: 15.5 kcal/mol | Activity [2]: Dose-Dependent Effect | -TdeltaS [3]: 9.51 kcal/mol | pKd [4]: 5.99 | pKd [5]: 6.80 | deltaH [6]: -18.6 kcal/mol | deltaH [7]: -24 kcal/mol | deltaG [8]: -9.12 kcal/mol | Activity [9]: Dose-Dependent Effect | deltaG [10]: -8.5 kcal/mol | DeltaCp [11]: -0.31 kcal/mol/K

CC[C@H](C)[C@@H]1NC(=O)[C@H](CC(=O)O)NC(=O)[C@@H](NC(C)=O)CSSC[C@@H]2NC(=O)[C@H](CCCCNC(=O)C[C@@H](C(=O)N[C@@H](CC(C)C)C(N)=O)NC(=O)[C@H](CCC(=O)O)NC(=O)[C@H](Cc3ccccc3)NC2=O)NC(=O)[C@H](Cc2c[nH]c3ccccc23)NC(=O)[C@H](CCC(=O)O)NC(=O)[C@H](Cc2c[nH]c3ccccc23)NC(=O)[C@H](CCCCNC(C)=O)NC(=O)[C@H](C(C)C)NC(=O)[C@H](Cc2cnc[nH]2)NC1=O (Ac-CDIHVK(Ac)WEWKCFEDL-NH2; disulfide 1-11; lactam 10-14)
-TdeltaS [1]: 16.2 kcal/mol | Activity [2]: Dose-Dependent Effect | -TdeltaS [3]: 9.66 kcal/mol | pKd [4]: 6.57 | pKd [5]: 7.30 | deltaH [6]: -19.5 kcal/mol | deltaH [7]: -25.5 kcal/mol | deltaG [8]: -9.79 kcal/mol | Activity [9]: Dose-Dependent Effect | deltaG [10]: -9.32 kcal/mol | DeltaCp [11]: -0.36 kcal/mol/K

CC[C@H](C)[C@@H]1NC(=O)[C@H](CC(=O)O)NC(=O)[C@@H](NC(C)=O)CSSC[C@@H]2NC(=O)[C@H](CCCCNC(=O)C[C@@H](C(=O)N[C@@H](CC(C)C)C(N)=O)NC(=O)[C@H](CCC(=O)O)NC(=O)[C@H](Cc3ccccc3)NC2=O)NC(=O)[C@H](Cc2c[nH]c3ccccc23)NC(=O)[C@H](CCC(=O)O)NC(=O)[C@H](Cc2c[nH]c3ccccc23)NC(=O)[C@H](CCCCNC(=O)CCOCCOCCOCCOCCOCCC(=O)NCCCC[C@@H]2NC(=O)[C@H](C(C)C)NC(=O)[C@H](Cc3cnc[nH]3)NC(=O)[C@H]([C@@H](C)CC)NC(=O)[C@H](CC(=O)O)NC(=O)[C@@H](NC(C)=O)CSSC[C@@H]3NC(=O)[C@H](CCCCNC(=O)C[C@@H](C(=O)N[C@@H](CC(C)C)C(N)=O)NC(=O)[C@H](CCC(=O)O)NC(=O)[C@H](Cc4ccccc4)NC3=O)NC(=O)[C@H](Cc3c[nH]c4ccccc34)NC(=O)[C@H](CCC(=O)O)NC(=O)[C@H](Cc3c[nH]c4ccccc34)NC2=O)NC(=O)[C@H](C(C)C)NC(=O)[C@H](Cc2cnc[nH]2)NC1=O (I: Ac-CDIHVKWEWKCFEDL-NH2 / II: Ac-CDIHVKWEWKCFEDL-NH2; disulfide I:1-I:11, II:1-II:11; linker I:6-II:6 via CO(CH2CH2O)5CH2CH2CO; lactam I:10-I:14, II:10-II:14)
-TdeltaS [1]: 36.4 kcal/mol | Activity [2]: Dose-Dependent Effect | -TdeltaS [3]: 27.3 kcal/mol | pKd [4]: 7.05 | pKd [5]: 7.74 | deltaH [6]: -37.7 kcal/mol | deltaH [7]: -46.4 kcal/mol | deltaG [8]: -10.4 kcal/mol | Activity [9]: Dose-Dependent Effect | deltaG [10]: -10 kcal/mol | DeltaCp [11]: -0.51 kcal/mol/K

CC[C@H](C)[C@@H]1NC(=O)[C@H](CC(=O)O)NC(=O)[C@@H](NC(C)=O)CSSC[C@@H]2NC(=O)[C@H](CCCCNC(=O)C[C@@H](C(=O)N[C@@H](CC(C)C)C(N)=O)NC(=O)[C@H](CCC(=O)O)NC(=O)[C@H](Cc3ccccc3)NC2=O)NC(=O)[C@H](Cc2c[nH]c3ccccc23)NC(=O)[C@H](CCC(=O)O)NC(=O)[C@H](Cc2c[nH]c3ccccc23)NC(=O)[C@H](CCCCNC(=O)CCOCCOCCOCCOCCOCCOCCOCCOCCOCCOCCOCCOCCOCCOCCOCCOCCOCCOCCOCCOCCOCCOCCOCCOCCOCCC(=O)NCCCC[C@@H]2NC(=O)[C@H](C(C)C)NC(=O)[C@H](Cc3cnc[nH]3)NC(=O)[C@H]([C@@H](C)CC)NC(=O)[C@H](CC(=O)O)NC(=O)[C@@H](NC(C)=O)CSSC[C@@H]3NC(=O)[C@H](CCCCNC(=O)C[C@@H](C(=O)N[C@@H](CC(C)C)C(N)=O)NC(=O)[C@H](CCC(=O)O)NC(=O)[C@H](Cc4ccccc4)NC3=O)NC(=O)[C@H](Cc3c[nH]c4ccccc34)NC(=O)[C@H](CCC(=O)O)NC(=O)[C@H](Cc3c[nH]c4ccccc34)NC2=O)NC(=O)[C@H](C(C)C)NC(=O)[C@H](Cc2cnc[nH]2)NC1=O (I: Ac-CDIHVKWEWKCFEDL-NH2 / II: Ac-CDIHVKWEWKCFEDL-NH2; disulfide I:1-I:11, II:1-II:11; linker I:6-II:6 via X1; lactam I:10-I:14, II:10-II:14)
-TdeltaS [1]: 39.5 kcal/mol | deltaS [12]: -95.4 cal/mol.K | Activity [2]: Dose-Dependent Effect | deltaH [13]: -50.6 kcal/mol | pKd [14]: 7.85 | -TdeltaS [3]: 26.7 kcal/mol | pKd [4]: 7.59 | pKd [15]: 7.59 | deltaH [16]: -37.4 kcal/mol | deltaS [17]: -127 cal/mol.K | pKd [18]: 7.96 | deltaH [19]: -50.2 kcal/mol | deltaH [20]: -35.6 kcal/mol | pKd [21]: 7.92 | pKd [5]: 8.05 | deltaH [6]: -37.5 kcal/mol | deltaS [22]: -91.1 cal/mol.K | deltaH [7]: -50.3 kcal/mol | deltaG [8]: -10.8 kcal/mol | Activity [9]: Dose-Dependent Effect | deltaG [10]: -10.8 kcal/mol | DeltaCp [11]: -0.75 kcal/mol/K | deltaS [23]: -127 cal/mol.K
